Several values for one entry are separate records, joined by “and”; a condition that tells them apart may be missing. Equal values may be shown once. Toxic doses and inconclusive results are not listed. How the source made its calls: active means survival T/C of 150% or more; inactive means T/C below 125% in these data.
Test system: CD2F1 mice, L1210 leukemia ip, survival T/C
Test: NCI In Vivo Anticancer Drug Screen. Data for tumor model L1210 Leukemia (intraperitoneal) in CD2F1 (CDF1) mice
Conditions: endpoint: mean survival time, higher = longer survival
How it was run: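 Transplantable tumor in mice; compound-treated vs vehicle-treated groups. Read-out = treated/control ratio of the measured endpoint.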

[1] = dose: 100.0 mg/kg/injection, schedule: Q01DX009 (ip), vehicle: saline with Tween-80
[2] = dose: 200.0 mg/kg/injection, schedule: Q01DX009 (ip), vehicle: saline with Tween-80
[3] = dose: 400.0 mg/kg/injection, schedule: Q01DX009 (ip), vehicle: saline with Tween-80
[4] = dose: 25.0 mg/kg/injection, schedule: Q01DX009 (ip), vehicle: saline with Tween-80
[5] = dose: 50.0 mg/kg/injection, schedule: Q01DX009 (ip), vehicle: saline with Tween-80
[6] = dose: 12.5 mg/kg/injection, schedule: Q01DX009 (ip), vehicle: saline with Tween-80
[7] = dose: 100.0 mg/kg/injection, schedule: Q04DX003 (ip), vehicle: saline with Tween-80
[8] = dose: 200.0 mg/kg/injection, schedule: Q04DX003 (ip), vehicle: saline with Tween-80
[9] = dose: 400.0 mg/kg/injection, schedule: Q04DX003 (ip), vehicle: saline with Tween-80

Measured: T/C

O=C1CC(c2ccccc2)C(c2ccccc2)=C1Cl (stereo not drawn)
inactive: [1] 94 % of control | [2] 98 % of control | [3] 96 % of control

C=C1C[C@@H](O)[C@H](O)[C@@]2(C)C[C@@H]3OC(=O)C(=C)[C@@H]3C[C@H]12
inactive: [1] 102 % of control

c1cc2c3c(c1)nc(CCCc1nc4cccc5c4n1CCC5)n3CCC2
inactive: [4] 103 % of control | [5] 96 % of control | [1] 94 % of control

Nc1nc(OCc2ccccc2)ncc1C(=O)NC(CO)C(=O)O (stereo not drawn)
inactive: dose: 6.25 mg/kg/injection, schedule: Q01DX009 (ip), vehicle: saline with Tween-80 100 % of control | [6] 98 % of control | [4] 102 % of control

O=C1N(c2ccccc2)CCS1(=O)=O
inactive: dose: 9.5 mg/kg/injection, schedule: Q01DX001 (ip), vehicle: other 101 % of control | dose: 19.0 mg/kg/injection, schedule: Q01DX001 (ip), vehicle: other 100 % of control | dose: 38.0 mg/kg/injection, schedule: Q01DX001 (ip), vehicle: other 106 % of control

O=C(Nc1cccc(Cl)c1)NC1CCC(CC2CCCCC2)CC1 (stereo not drawn)
inactive: [7] 95 % of control | [8] 95 % of control | [9] 100 % of control

C=CCN(CC=C)/N=N/c1nc[nH]c1C(N)=O
inactive: [7] 98 % of control | [8] 105 % of control | [9] 100 % of control

CCOc1ccc(NC(=S)NC(=O)/C=C/c2ccccc2)cc1
inactive: [6] 93 % of control and 96 % of control | dose: 100.0 mg/kg/injection, schedule: Q01DX001 (ip), vehicle: saline with Tween-80 95 % of control | dose: 100.0 mg/kg/injection, schedule: Q04DX002 (ip), vehicle: saline with Tween-80 95 % of control and 98 % of control | [7] 93 % of control | dose: 200.0 mg/kg/injection, schedule: Q01DX001 (ip), vehicle: saline with Tween-80 100 % of control | dose: 200.0 mg/kg/injection, schedule: Q04DX002 (ip), vehicle: saline with Tween-80 94 % of control and 97 % of control | [8] 96 % of control | dose: 400.0 mg/kg/injection, schedule: Q01DX001 (ip), vehicle: saline with Tween-80 93 % of control | [3] 108 % of control and 111 % of control | dose: 400.0 mg/kg/injection, schedule: Q04DX002 (ip), vehicle: saline with Tween-80 94 % of control and 101 % of control | [9] 96 % of control

CCCCCCCCCC[N+]1(C)CCC[N+](C)(CCCCCCCCCC)CC1 (stereo not drawn)
inactive: dose: 12.5 mg/kg/injection, schedule: Q01DX001 (ip), vehicle: saline with Tween-80 95 % of control | dose: 25.0 mg/kg/injection, schedule: Q01DX001 (ip), vehicle: saline with Tween-80 105 % of control

O=S(Nc1ccccc1)Nc1ccccc1
inactive: [1] 95 % of control | [7] 97 % of control | [8] 94 % of control | [9] 97 % of control

O=C(CBr)CC(=O)Nc1ccccc1
inactive: dose: 50.0 mg/kg/injection, schedule: Q04DX003 (ip), vehicle: saline with Tween-80 101 % of control | [7] 88 % of control

CCOC(=O)CN1C(=O)NC(c2ccccc2)(c2ccccc2)C1=O
inactive: [1] 94 % of control | dose: 100.0 mg/kg/injection, schedule: Q04DX003 (ip), vehicle: acetone 97 % of control | dose: 200.0 mg/kg/injection, schedule: Q04DX003 (ip), vehicle: acetone 101 % of control | [3] 94 % of control | dose: 400.0 mg/kg/injection, schedule: Q04DX003 (ip), vehicle: acetone 103 % of control

Cc1ccc(S(=O)(=O)OCC2OC(n3cnc4c(NC=O)ncnc43)C(OC=O)C2OC=O)cc1 (stereo not drawn)
inactive: dose: 25.0 mg/kg/injection, schedule: Q01DX009 (ip), vehicle: saline 104 % of control | dose: 50.0 mg/kg/injection, schedule: Q01DX009 (ip), vehicle: saline 102 % of control | dose: 100.0 mg/kg/injection, schedule: Q01DX009 (ip), vehicle: saline 98 % of control

CCc1cc(CC)c(CC)c(Br)c1CC
inactive: [5] 98 % of control | [1] 108 % of control | [7] 98 % of control | [8] 101 % of control

COc1ccc(OC)c(C(=O)CC(O)(C(F)(F)F)C(F)(F)F)c1
inactive: [1] 97 % of control | [2] 101 % of control | [3] 97 % of control
